Like-named read-outs stand apart in the source and are kept apart here.
What was measured:
[1] = test system: female CD-1 mice; experiment: Improved anti-uterotrophic assay, daily oral gavage for 10 days beginning on PND 24; assay type: in vivo; conditions: BHPF at 27.8 mg kg^−1 bw d^−1
Protocol: The animals were fed ad libitum with a basic diet from the Laboratory Animal Center of the Academy of Military Medical Sciences (Beijing, China), and drinking water was provided ad libitum. […] The volume of vehicle or chemical solutions administered was adjusted daily based on body weight measured during the dosing period according to the volume-body weight ratio of 5 ml kg^−1 bw.

[2] = test system: CD-1 mice; experiment: Q-RT-PCR validation of the microarray; assay type: in vivo; conditions: 50 mg/kg bw/d BHPF, 3 days
Protocol: The uteri, ovaries and livers were collected for total RNA isolation. Total RNA was isolated using Trizol reagent (Invitrogen) and further purified by NucleoSpin RNA Clean-up (Macherey-Nagel, Germany). Fluorescence labelling of the RNA samples was performed with a Jingxin cRNA linear amplification and labelling kit (CapitalBio) according to the manufacturer's instructions. The total RNA from each pool of tissue samples (a mixture from three animals) was used for microarray analysis. Cy3 dCTP was used to label the samples. The labelled products were added to SurePrint G3 mouse gene expression 8 × 60 K microarrays (Agilent) and incubated overnight at 42 °C. Following hybridization, the gene arrays were washed and scanned using an Agilent G2565CA Microarray Scanner. Glyceraldehyde 3-phosphate dehydrogenase (GAPDH) was used as an endogenous control to monitor the quality of the target preparation. The data were processed with feature extraction software (GeneSpring GX v.11; Agilent). The raw signals were log-transformed and normalized with the percentile shift normalization method. All arrays met the minimum Agilent QA/QC standards. To verify the data from the gene array, 14 genes were chosen as candidates for Q-RT-PCR. Primers are listed in Supplementary Table 4. GAPDH was used as an endogenous control. Amplification was performed using SYBR Green PCR master mix (Applied Biosystems) according to the manufacturer's instructions. The relative expression was quantified using the 2^(−ΔΔCt) method. The Gene Ontology (GO) and KEGG pathway enrichment analyses were performed with DAVID (refs [40], [41]).

[3] = test system: CD-1 mice; experiment: Uterotrophic assay, 3 days beginning on PND 21; assay type: in vivo; conditions: combined with 400 μg kg^−1 bw d^−1 E2; 250 and 500 mg kg^−1 d^−1 groups; P<0.01
Protocol: […] […] Ten mice per group were used for the assays. Error bars indicate the s.d.'s from the average. *P<0.05 compared with the corresponding control. **P<0.01 compared with the corresponding control. Significance was tested by Fisher's LSD test.

[4] = target: T1, human oestrogen receptor β (Homo sapiens, UniProt Q92731); experiment: Dual-luciferase reporter assay, full-length ERβ and ERE in JEG-3 cells; assay type: cell-based
T1 construct: expressed in transfected cells; host or cells: JEG-3 human choriocarcinoma cells
Protocol: Dual-luciferase reporter assays were carried out primarily according to the method described in a previous study. In short, full-length sequences of human oestrogen receptor α and β were amplified by RT-PCR using mRNA from MCF-7 (Supplementary Table 3), and inserted into a pSVSPORT1 (Invitrogen); the resulting constructs were termed pSVhERα and pSVhERβ. A reporter plasmid containing ERE was constructed by inserting four tandem repeats of an ERE of Xenopus laevis vitellogenin A2 into a pGL4.23 vector (Promega), and was termed pGL4-ERE-luc. […] The Renilla LUC control reporter construct pGL4.74-TK was purchased from Promega (Madison, WI). Human choriocarcinoma JEG-3 cells (ATCC No. HTB-36) were obtained from the American Type Culture Collection (ATCC; Manassas, VA) and were cultured in minimal essential medium (MEM, Invitrogen, Carlsbad, CA) containing 2 mM L-glutamine, 0.1 mM minimal essential medium nonessential amino acid solution (Invitrogen/Thermo Fisher Scientific, Grand Island, NY), and 10% fetal calf serum (FCS) at 37 °C in a humidified atmosphere containing 5% CO2. The cells (3 × 10^4 cells per well) were seeded in 24-well plates 24 h before transfection. The cells were transfected with pGL4-ERE-luc (5 ng per well), pGL 4.74-TK (0.2 ng per well) and either pSVhERα (5 ng per well) or pSVhERβ (5 ng per well) using Lipofectamine reagent (Invitrogen). At 24 h after transfection, the compounds in DMSO were added to the cultures at a volume ratio (v/v) of 0.1%. The cells were continuously cultured in medium supplemented with 1% charcoal-stripped FCS for another 24 h and then harvested, and cell extracts were assayed for firefly luciferase activity. The assays were performed in quadruplicate, and the results were expressed as the fold induction of the control after normalization against Renilla luciferase activity. Sigmoidal dose-effect curves were calculated using the GraphPad Prism 4 software. The IC50 values were calculated on the basis of the sigmoidal dose-effect curves. […]

T1 sequence (Q92731 whole entry): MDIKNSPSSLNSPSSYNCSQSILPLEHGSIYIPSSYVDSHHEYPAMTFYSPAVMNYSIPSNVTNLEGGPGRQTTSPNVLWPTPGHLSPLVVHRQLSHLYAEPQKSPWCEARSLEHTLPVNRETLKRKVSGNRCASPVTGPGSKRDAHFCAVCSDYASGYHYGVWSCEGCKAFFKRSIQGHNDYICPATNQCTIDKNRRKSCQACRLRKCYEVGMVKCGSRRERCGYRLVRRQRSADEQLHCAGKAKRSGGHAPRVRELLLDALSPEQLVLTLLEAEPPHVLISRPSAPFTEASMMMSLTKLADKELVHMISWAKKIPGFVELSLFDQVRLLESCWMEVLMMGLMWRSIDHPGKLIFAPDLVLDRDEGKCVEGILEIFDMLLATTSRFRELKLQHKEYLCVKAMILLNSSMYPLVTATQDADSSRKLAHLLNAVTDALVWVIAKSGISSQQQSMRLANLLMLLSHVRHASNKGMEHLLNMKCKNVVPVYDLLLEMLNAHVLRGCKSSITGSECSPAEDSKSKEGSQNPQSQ

Oc1ccc(C2(c3ccc(O)cc3)c3ccccc3-c3ccccc32)cc1 [BHPF, 9,9-bis(4-hydroxyphenyl)-fluorene]
anti-uterotrophic activity compared with FULV [1]: close to that of FULV at 2 mg kg^−1 bw d^−1 | Actb gene expression change, liver, Q-RT-PCR [2]: 1.25 | Actb gene expression change, ovary, Q-RT-PCR [2]: 1.13 | Actb gene expression change, uterus, Q-RT-PCR [2]: 1.13 | Cfd gene expression change, liver, Q-RT-PCR [2]: -2.43 | Cfd gene expression change, ovary, Q-RT-PCR [2]: 2.28 | Cfd gene expression change, uterus, Q-RT-PCR [2]: -2.85 | Orm1 gene expression change, liver, Q-RT-PCR [2]: -1.41 | Orm1 gene expression change, ovary, Q-RT-PCR [2]: 2.19 | Orm1 gene expression change, uterus, Q-RT-PCR [2]: 5.17 | Spp1 gene expression change, liver, Q-RT-PCR [2]: -1.51 | Spp1 gene expression change, ovary, Q-RT-PCR [2]: -1.68 | Spp1 gene expression change, uterus, Q-RT-PCR [2]: 3.43 | Sprr1a gene expression change, liver, Q-RT-PCR [2]: 4.11 | Sprr1a gene expression change, ovary, Q-RT-PCR [2]: 1.16 | Sprr1a gene expression change, uterus, Q-RT-PCR [2]: -2.01 | Sprr2a2 gene expression change, liver, Q-RT-PCR [2]: 3.43 | Sprr2a2 gene expression change, ovary, Q-RT-PCR [2]: -8.94 | Sprr2a2 gene expression change, uterus, Q-RT-PCR [2]: -5.70 | Sprr2b gene expression change, liver, Q-RT-PCR [2]: 4.76 | Sprr2b gene expression change, ovary, Q-RT-PCR [2]: -9.65 | Sprr2b gene expression change, uterus, Q-RT-PCR [2]: -9.58 | Sprr2f gene expression change, liver, Q-RT-PCR [2]: 4.41 | Sprr2f gene expression change, ovary, Q-RT-PCR [2]: -5.28 | Sprr2f gene expression change, uterus, Q-RT-PCR [2]: -5.78 | Sprr2g gene expression change, liver, Q-RT-PCR [2]: 3.68 | Sprr2g gene expression change, ovary, Q-RT-PCR [2]: -5.70 | Sprr2g gene expression change, uterus, Q-RT-PCR [2]: -1.83 | chil3 gene expression change, liver, Q-RT-PCR [2]: -2.81 | chil3 gene expression change, ovary, Q-RT-PCR [2]: -3.92 | chil3 gene expression change, uterus, Q-RT-PCR [2]: -3.07 | cyp2e1 gene expression change, liver, Q-RT-PCR [2]: 4.06 | cyp2e1 gene expression change, ovary, Q-RT-PCR [2]: 1.69 | cyp2e1 gene expression change, uterus, Q-RT-PCR [2]: 4.00 | ll1f6 gene expression change, liver, Q-RT-PCR [2]: 2.66 | ll1f6 gene expression change, ovary, Q-RT-PCR [2]: -4.29 | ll1f6 gene expression change, uterus, Q-RT-PCR [2]: -4.66 | serp1d gene expression change, liver, Q-RT-PCR [2]: 2.48 | serp1d gene expression change, ovary, Q-RT-PCR [2]: 1.59 | serp1d gene expression change, uterus, Q-RT-PCR [2]: 30.91 | GAPDH gene expression change, liver, Q-RT-PCR ([2]; endogenous control): 1.00 | GAPDH gene expression change, ovary, Q-RT-PCR ([2]; endogenous control): 1.00 | GAPDH gene expression change, uterus, Q-RT-PCR ([2]; endogenous control): 1.00 | effect on uterotrophic effect of E2 [3]: inhibited the uterotrophic effect of E2 | IC50 ([4]; coexisted with 1 × 10^−9 M E2, read-out: IC50, anti-oestrogenic activity): 75.3 nM | oestrogenic activity ([4]; compound alone): no oestrogenic activity | IC50 ([4]; vs 1 nM E2, read-out: IC50 converted to mass concentration (converted)): 75.3 nM
